Experiment [1] relates to ferrochelatase. The conditions noted are these: background statement, potent inhibitor of ferrochelatase; cited from earlier work.
Experiment [2] concerns the target T1, wild-type, murine ferrochelatase (Mus musculus, UniProt P22315).
T1 construct: In wild-type, murine, mature ferrochelatase, five tryptophan residues; penta-histidine tag (N); made in house; host or cells: E. coli BL21(DE3)
T1 sequence (P22315 54-422): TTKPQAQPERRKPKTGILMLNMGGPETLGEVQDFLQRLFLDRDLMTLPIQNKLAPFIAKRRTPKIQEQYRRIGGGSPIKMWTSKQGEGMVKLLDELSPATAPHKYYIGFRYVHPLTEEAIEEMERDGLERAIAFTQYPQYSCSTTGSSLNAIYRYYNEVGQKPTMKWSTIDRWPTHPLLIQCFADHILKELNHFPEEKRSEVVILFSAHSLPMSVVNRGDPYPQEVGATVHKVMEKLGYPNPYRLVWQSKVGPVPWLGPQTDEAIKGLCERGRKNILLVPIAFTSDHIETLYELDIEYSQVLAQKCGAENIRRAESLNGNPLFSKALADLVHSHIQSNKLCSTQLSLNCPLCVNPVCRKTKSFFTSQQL
The experiment can be described thus: Fluorescence titration of NMPP binding (quenching of intrinsic protein fluorescence). The settings on record: 10 mM Tris-acetate pH 8, 0.05% Tween-80, read-out: dissociation constant (Kd) of NMPP. On the procedure:
Aliquots of NMPP were added to a solution of enzyme in 10 mM Tris-acetate, pH 8 containing 0.05% Tween-80 and incubated on ice for 1 hr. The intrinsic protein fluorescence was monitored at 331 nm (λex=283 nm). The Kd value for NMPP was determined by fitting the data to Equation 3. The enzymes used in each set were: A. wild-type ferrochelatase (40 nM); B. P255R (250 nM); C. P255G (120 nM).
The equilibrium constant for NMPP binding to ferrochelatase could be determined from the change in intrinsic protein fluorescence upon ligand addition. […]
Fluorescence Titration Measurements. Equilibrium fluorescence measurements were made using a Shimadzu RF-5301PC fluorimeter at 23° C. with excitation and emission wavelengths at 283 nm and 331 nm, respectively. The decrease in protein fluorescence, due to NMPP binding, was monitored. […] In a typical titration experiment, aliquots of the NMPP stock were added to the protein solution and, upon incubation on ice for 1 h, the quenching in fluorescence was monitored as described above. […] The observed fluorescence intensity was plotted against NMPP concentration and the dissociation constant of NMPP for ferrochelatase was determined using the least-squares fit of each data set to equation 3 by nonlinear regression: […]

With N-methyl protoporphyrin [NMPP], the Ki in experiment [1] is around 10 nM. In addition, in experiment [2], the equilibrium dissociation constant (Kd) amounted to 9 ± 5 nM.

As usually defined, the Ki is a dissociation constant, usually derived from enzyme kinetics or from competition with a known ligand. Broadly, the Kd is a measure of binding affinity in units of concentration.

The values are drawn from patent US8586530B2, “Modulation of inhibition of ferrochelatase by N-methyl protoporphyrin” (University of South Florida, priority 2006, dated 2013).
